The test system of this experiment is Malassezia furfur (ATCC #38593). The experiment can be described thus: M. furfur efficacy assay (anti-fungal activity, Alamar blue, 96 well plates). Type of experiment: cell-based. As for the experimental part: Malassezia furfur (ATCC #38593) was cultured on Media C agar for 7 d at 37° C. Yeast colonies were then harvested into 0.9% saline sterile diH2O and diluted to approximately 1.5×10^6 CFU/mL using a 0.5 MacFarland standard (Fisher #R20410) to create an assay inoculum. Assay inoculum was added to sterile Media C broth to a final concentration of 4.5×10^4 CFU/mL. Assays were carried out in 96 well plates with a final well volume of 100 μL.
Extract fractions and pure compounds were tested in triplicate against each organism. Extract fractions and pure compounds were resuspended in sterile 20% DMSO.
Each plate contained eight uninoculated positive controls (media+20% DMSO), eight untreated negative controls (Media+20% DMSO+organism), and one column containing a concentration range of a ketoconazole as a control antibiotic. The assay plate was incubated at 37° C. for 5d after which growth within the wells were visualized and photographed with a UVP Biospectrum 500 imaging system. Alamar blue was then added to each well at 10% of the culture volume (11 μL in 100 μL). Fluorescence was monitored using a BioTek Synergy HT plate reader at 530/25 excitation, 590/35 emission and 35 sensitivity at both time zero and 4 hrs after Alamar blue was added. After subtracting the time zero emission 590 nm measurement from the final reading the inferred percentage of microorganism survival relative to vehicle control wells were calculated.
Experimentation was carried out to assess the anti-fungal effect of the produced fumagillin derivative and the pseurotin A each on their own, and in combination against M. furfur in a shampoo type formulation.
Initially the M. furfur efficacy assay was tested with both J&J Baby Shampoo as well as Head & Shoulders to establish a baseline and assess the compatibility of the assay using a shampoo. Compositions of the fumagillin derivative with and without pseurotin A were created and suspended into the baby shampoo. The shampoo mixture was then diluted out into the assay in a similar manner to Head & Shoulders, so that various dilution points in the assay represented multiple sub-inhibitory concentrations of the fumagillin derivative and pseurotin A (concentration combinations are listed in Table 1).
(Alamar Blue is a resazurin reagent that responds to reducing activity.)

Broadly, the IC50 is the point on the concentration scale where inhibition reaches its midpoint. A word on the MIC: it is the lowest concentration found to suppress growth. In the case of `CC/C=C\[C@H](O)[C@H](O)C1=C(C)C(=O)[C@]2(O1)C(=O)N[C@@](OC)(C(=O)c1ccccc1)[C@@H]2O` [Pseurotin A, pseurotin A], where the note is “active alone, M. furfur, incubated at 37° C. for 5d”, the concentration for half-maximal inhibition (IC50) came out at 55 mg/L. Also, the minimum inhibitory concentration (MIC) was determined as 128 mg/L (active alone, M. furfur, incubated at 37° C. for 5d, listed as Pseurotin A (sample 1)) and 75 mg/L (active alone, M. furfur, incubated at 37° C. for 5d, listed as Pseurotin A (sample 2)). For the same compound, the “anti-Malassezia activity of isolated pure fractions” value (fraction 6 and fraction 10 of Peyronellaea sp. RKDO347 extract) was “demonstrated anti-Malassezia activity”.

The values are drawn from patent US10888548B2, “Anti-dandruff compositions comprising a spirofuranone lactam tetramic acid derivative” (priority 2015, dated 2021).
